Source: patent US6277834A, “Agents for relieving side effects of adrenal cortex hormone” (Senju Pharmaceutical Co. Ltd., priority 1998, dated 2001)
Structures can show the parent of a compound that is named as a salt.

Tests used:
[1] = test system: croton oil-induced edema of the right auricles of the mice; assay: Croton oil-induced ear edema in mice (antiinflammatory effect); assay type: in vivo, ICR mice (10-week old male)
Procedure: A test was performed for examining antiinflammatory effect observed by concurrent use of the present compound and an adrenocortical hormone. In addition, dose-response test was carried out for the adrenocortical hormone.
(§1) 0.012% betamethasone valerate (dissolved in methanol).
0.5% EPC-K (dissolved in methanol).
Twenty μl of croton oil (6%) dissolved in acetone was applied on the outer surface of the right auricles of the mice to induce edema. Fifteen minutes later, 20 μl of one of the test materials was applied to each of the right auricles.
Four hours after the application of the test materials, the thickness of the right auricles of the mice were measured using a dial thickness gauge and edema rates were determined by comparing their thickness with that before induction.

Acute toxicity (LD50) = conditions: in vivo, rat
[2] = Body weight, thymus and spleen weight in hairless mice after repeated topical application (reduction of side effects of an adrenocortical hormone); conditions: EPC-K (0.5%) administered concurrently with betamethasone valerate (0.012%), two weeks
Procedure: A test was carried out to examine the effect of the present compound to reduce side effects of an adrenocortical hormone.
as §1
0.012% betamethasone valerate +0.5% EPC-K (dissolved in methanol).
10-week old female HR-1 hairless mice purchased from SLC Japan were used for the test. One hundred μl of the test materials were applied to the respective mice on the whole area of their back skin. This procedure was repeated once a day for two weeks, and then the body weight and the weight of the thymus and the spleen were determined.

[3] = Table 4, 4 h after 20 μl topical, 0.5% EPC-K, 0.012% betamethasone valerate, or both, mean ± S.D. (n = 23-27), methanol 116.1 ± 23.3
[4] = Table 4, edema inhibition 4 h after 20 μl topical, 0.5% EPC-K, 0.012% betamethasone valerate, or both, n = 23-27

| SMILES | Edema rate(%) [1, 3] [%] | Inhibition rate(%) [1, 4] [%] | Edema rate(%) ([1]; Table 5 dose-response, 0.012% betamethasone valerate, 4 h, mean ± S.D. (n = 8-9), methanol 138.8 ± 18.5) | Inhibition rate(%) ([1]; Table 5 dose-response, 0.012% betamethasone valerate, 4 h, n = 8-9) | Edema rate(%) ([1]; Table 5 dose-response, 0.040% betamethasone valerate, 4 h, mean ± S.D. (n = 8-9), methanol 138.8 ± 18.5) | Inhibition rate(%) ([1]; Table 5 dose-response, 0.040% betamethasone valerate, 4 h, n = 8-9) | Edema rate(%) ([1]; Table 5 dose-response, 0.12% betamethasone valerate, 4 h, mean ± S.D. (n = 8-9), methanol 138.8 ± 18.5) | Inhibition rate(%) ([1]; Table 5 dose-response, 0.12% betamethasone valerate, 4 h, n = 8-9) | concentration of betamethasone valerate that would give an effect comparable to 0.012% betamethasone valerate plus 0.5% EPC-K ([1]; calculated from the dose-response test (Table 5)) [%] | LD50 (Acute toxicity (LD50); iv) [mg/kg] | LD50 (Acute toxicity (LD50); po) [mg/kg] | atrophy of spleen (by betamethasone valerate) [2] | atrophy of thymus (by betamethasone valerate) [2] | body weight reduction (by betamethasone valerate) [2] |
| --- | --- | --- | --- | --- | --- | --- | --- | --- | --- | --- | --- | --- | --- | --- |
| CCCCC(=O)O[C@]1(C(=O)CO)[C@@H](C)C[C@H]2[C@@H]3CCC4=CC(=O)C=C[C@]4(C)[C@@]3(F)[C@@H](O)C[C@@]21C [Betamethasone valerate, betamethasone valerate] | 87.3 ± 21.7 | 27.9 | 101.6 ± 15.3 | 26.8 | 86.5 ± 30.3 | 37.7 | 52.8 ± 13.3 | 62.0 | 0.088 |  |  |  |  |  |
| Cc1c(C)c2c(c(C)c1OP(=O)(O)OC1=C(O)[C@@H]([C@@H](O)CO)OC1=O)CCC(C)(CCCC(C)CCCC(C)CCCC(C)C)O2 (mixture of isomers) [EPC-K, potassium salt of phosphodiester of L-ascorbic acid and DL-α-tocopherol] | 109.1 ± 26.3 | 6.0 |  |  |  |  |  |  |  | > 100 | > 5000 | suppressed | suppressed | suppressed |
